Here are results for four compounds from patent publication US4684624A (priority 1985, dated 1987).

The subject of experiment [1] is neurologic deficits secondary to cerebral ischemia. The note with it: man; cited from earlier work.
The subject of experiment [2] is acute focal cerebral ischemia (MCA occlusion). Set-up: species or system cat. The note with it: in vivo; for lived up to 7 days / mortality, 24-28 hours / mortality, 48-72 hours / mortality, less than 24 hours: ip.
Experiment [3] concerns ischemic neurologic deficit. As to conditions: cited from earlier work.
For experiment [4], the system named is analgesic response. The note with it: mice; cited from earlier work.

For the compound `C=CCN1CC[C@]23c4c5ccc(O)c4O[C@H]2C(=O)CC[C@@]3(O)[C@H]1C5` [Naloxone, 17-allyl-4-5α-epoxy-3,14-dihydroxymorphinan-6-one], in experiment [1], the “effect on neurologic deficits secondary to cerebral ischemia” value is reported as “can reverse neurologic deficits”. Further, in experiment [2], the “effect in prolonging survival” value is recorded as “prolonged survival”; the “lived up to 7 days” value worked out at 31%; the “mortality, 24-28 hours” value turned out to be 15%; the “mortality, 48-72 hours” value turned out to be 0%. Also, the “mortality, less than 24 hours” value in experiment [2] amounted to 54%. Also, in experiment [3] (gerbils (Holaday and D'Amato)), the “survival and neurologic function in several models of stroke” value is listed as “no beneficial effect”. Also, in experiment [3] (gerbils (Levy et al.)), the “neurologic function and infarct size after temporary carotid occlusion” value is “did not produce improved neurologic function or alter infarct size”. In experiment [3] (gerbils, intraperitoneal (Hosobuchi et al.)), the “neurologic deficits produced by unilateral carotid ligation” value is reported as “can be reversed”.
For the compound `O=C1CC[C@@]2(O)[C@H]3Cc4ccc(O)c5c4[C@@]2(CCN3CC2CC2)[C@H]1O5` [Naltrexone], in experiment [2], the “effect in prolonging survival” value is “prolonged survival”; the “lived up to 7 days” value was 40%; the “mortality, 24-28 hours” value turned out to be 10%; the “mortality, 48-72 hours” value is 10%. The “mortality, less than 24 hours” value in experiment [2] is given as 40%.
Consider `CN1CC[C@]23c4c5ccc(O)c4O[C@H]2[C@@H](O)C=C[C@H]3[C@H]1C5` [morphine], for which the “effect on neurologic deficits secondary to cerebral ischemia” value in experiment [1] is “exacerbates them”.
For Dynorphin, the analgesic potency result in experiment [4] is on record as “little or no analgesic potency”.
